pIC50: −log10 of the molar value. A value given as a limit tells only on which side of the number the result lay.

EGFR (human), sequence (P00533 whole entry, looked up): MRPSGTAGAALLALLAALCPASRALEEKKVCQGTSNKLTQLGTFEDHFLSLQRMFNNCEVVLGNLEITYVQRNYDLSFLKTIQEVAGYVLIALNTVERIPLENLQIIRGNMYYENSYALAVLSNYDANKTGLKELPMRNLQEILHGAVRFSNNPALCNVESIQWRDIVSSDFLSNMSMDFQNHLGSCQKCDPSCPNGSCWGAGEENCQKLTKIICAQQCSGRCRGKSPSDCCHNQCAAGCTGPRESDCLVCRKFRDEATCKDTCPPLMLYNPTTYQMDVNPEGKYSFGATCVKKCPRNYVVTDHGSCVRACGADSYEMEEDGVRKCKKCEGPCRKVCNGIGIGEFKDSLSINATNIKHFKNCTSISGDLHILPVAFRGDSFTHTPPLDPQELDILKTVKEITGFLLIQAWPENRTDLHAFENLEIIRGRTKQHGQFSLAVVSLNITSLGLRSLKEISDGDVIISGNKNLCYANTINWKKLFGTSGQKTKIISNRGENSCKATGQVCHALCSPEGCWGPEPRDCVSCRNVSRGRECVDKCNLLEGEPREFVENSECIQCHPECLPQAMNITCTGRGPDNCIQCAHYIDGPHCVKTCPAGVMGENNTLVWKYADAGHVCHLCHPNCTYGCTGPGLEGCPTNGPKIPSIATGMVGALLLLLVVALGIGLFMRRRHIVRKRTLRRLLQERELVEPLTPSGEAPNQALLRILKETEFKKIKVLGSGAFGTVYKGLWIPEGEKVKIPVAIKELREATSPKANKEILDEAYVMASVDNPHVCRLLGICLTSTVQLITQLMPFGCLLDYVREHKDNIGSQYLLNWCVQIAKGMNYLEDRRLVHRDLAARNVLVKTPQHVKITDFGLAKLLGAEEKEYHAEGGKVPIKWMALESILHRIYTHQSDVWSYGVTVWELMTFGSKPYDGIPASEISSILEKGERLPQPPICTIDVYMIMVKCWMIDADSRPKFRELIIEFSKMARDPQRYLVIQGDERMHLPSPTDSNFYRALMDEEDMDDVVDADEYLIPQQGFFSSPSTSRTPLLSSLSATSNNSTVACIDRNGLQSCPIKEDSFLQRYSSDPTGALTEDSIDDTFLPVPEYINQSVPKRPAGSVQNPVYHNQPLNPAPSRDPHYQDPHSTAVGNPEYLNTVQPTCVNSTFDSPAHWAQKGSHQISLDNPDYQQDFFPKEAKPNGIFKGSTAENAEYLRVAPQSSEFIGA

This experiment has as its target EGFR (human) (UniProt P00533). The note with it: a431.
As usually defined, the pIC50 is the negative decadic logarithm of the IC50, by convention in mol/L. A lower pIC50 goes with a high IC50. Turning to `Cc1nc2cc3nc(-c4cc[cH-]c4)cnc3cc2n1C.[Fe+2].c1cc[cH-]c1`, the negative-log IC50 (pIC50) is below 4.52.
Turning to `Cc1cc2ncc(-c3ccccc3)nc2cc1C`, the pIC50 was below 4.00.
In the case of `Cc1nc2cc3ncc(-c4cccs4)nc3cc2n1C`, the negative logarithm of the IC50 (pIC50) was below 4.52.
The result for `Cc1nc2cc3nc(-c4ccccc4)cnc3cc2n1C` reads below 4.52; that for `Cc1cc2ncc(-c3cccs3)nc2cc1C`, below 4.52.
Consider `Cc1nc2cc3nc(-c4cccs4)cnc3cc2n1C`, for which the pIC50 was below 4.52.
The compound `Cc1nc2cc3ncc(-c4ccccc4)nc3cc2n1C` showed a negative-log IC50 (pIC50) below 4.52.
On to `COc1cc2ncc(-c3ccccc3)nc2cc1OC`, for which the pIC50 is below 4.00.
Compound `Cc1cc2ncc(-c3cc[cH-]c3)nc2cc1C.[Fe+2].c1cc[cH-]c1` had a pIC50 below 4.52.
For `c1ccc(-c2cnc3cc4ccccc4cc3n2)cc1`, the negative logarithm of the IC50 (pIC50) was below 4.00.

For the origin of these results see the Kinase Knowledgebase extract (Sharma et al. 2016).
